These results are taken from patent US20260293897A1, “COMPOUND CONTAINING FIVE-MEMBERED HETEROCYCLE, PREPARATION METHOD THEREFOR, AND APPLICATION THEREOF” (QINGDAO KANGQIAO PESTICIDES AND CHEMICALS GROUP CO., LTD., priority 2022, published 2026).

Structures are written as SMILES. Where two headings read alike, the source gives them in different places.

Common to all, as to assay type: in vivo
The subject of series [1] is Tetranychus cinnabarinus. In words: Tetranychus cinnabarinus Controlling Activity Test. The note with it: 72 h; for mortality at 1.6 ppm: read-out: mortality against Tetranychus cinnabarinus; for mortality at 1.56 ppm / mortality at 3.125 ppm / mortality at 6.25 ppm / mortality at 12.5 ppm: in Phaseolus vulgaris. On the procedure: Tetranychus cinnabarinus Controlling Activity Test:
The test compound was dissolved in acetone and diluted to the desired concentration with 0.1 wt % aqueous tween 80, the acetone content not exceeding 5 wt %.
One real leaf was removed from kidney bean seedlings grown to two real leaves, inoculating Tetranychus cinnabarinus, investigating the base number, performing whole plant spraying treatment by using a handheld sprayer, repeating the treatment for 3 times (the application amount of the preparation is about 0.5 g), observing in a constant-temperature observation room after the treatment, investigating the number of live mites after 72 hours, and calculating the mortality. The number of Tetranychus cinnabarinus inoculated in each time is 35-100.
Mortality%=(number of inoculated insects−number of live insects after drug administration)÷number of inoculated insects×100%

Series [2] has as its system Spodoptera frugiperda. In words: Spodoptera frugiperda Indoor Toxicity Determination Test. The note with it: in Zea mays, read-out: mortality against Spodoptera frugiperda. From the text: Spodoptera frugiperda Indoor Toxicity Determination Test
Test targets: Spodoptera frugiperda, 3rd instar larvae, a sensitive strain raised indoors.
The test method comprises the following steps: firstly, selecting fresh corn leaves cultivated in a greenhouse, cutting the fresh corn leaves into 5 cm-long leaf segments, sequentially arranging the test design from low dose to high dose, soaking the fresh corn leaves in prepared liquid medicine for 10 s, naturally drying the fresh corn leaves in the shade, then placing the dried corn leaves in a culture dish with filter paper and the diameter of 9 cm, inoculating regular healthy test insects, n=10, repeating the treatment for 3 times, and additionally arranging blank control.

Series [3] concerns Phyllotreta striolata. Nature of the series: Phyllotreta striolata Controlling Activity Test. To be noted: 72 h, read-out: mortality against Phyllotreta striolata. On the procedure: Phyllotreta striolata Controlling Activity Test:
Preparing liquid medicine according to the experimental design concentration, selecting fresh cabbage leaves, soaking the cabbage leaves for 15 s, taking out, airing, placing in a glass tube, connecting 20-25 heads of the Flea beetles adults with each tube, repeating the treatment for 3 times, investigating the death condition of the Phyllotreta striolata after 72 hours, and calculating and correcting the death rate.

The subject of series [4] is Frankliniella occidentalis larvae. Nature of the series: Frankliniella occidentalis Larva Controlling Activity Test. To be noted: 72 h; for mortality at 3.25 ppm: read-out: mortality for Frankliniella occidentalis larvae; for mortality at 1.56 ppm / mortality at 3.125 ppm / mortality at 6.25 ppm: in Brassica oleracea. The method, then:
Frankliniella occidentalis Larva Controlling Activity Test:
The test compound is dissolved in acetone and diluted to the desired concentration. 0.5 mL of the prepared acetone medicinal liquid is added into a glass tube (the inner diameter is 1 cm, the length is 10 cm), and the glass tube is repeatedly rolled on a flat table until the acetone solution is completely volatilized. Soaking cabbage leaves in the liquid medicine with the corresponding concentration for 15 s, drying, placing in a glass tube, inoculating 10-20 heads of Frankliniella occidentalis larvae in the glass tube, repeating the treatment for three times, observing in a constant-temperature observation room after the treatment, investigating the number of live insects after 72 hours, and calculating the mortality.

For series [5], the system named is Sensitive Plutella xylostella. Nature of the series: Sensitive Plutella xylostella Controlling Activity Test. From the text: Sensitive Plutella xylostella Controlling Activity Test:
Test targets: Plutella xylostella, 3 rd instar larvae, a sensitive strain raised indoors.
The test method comprises the following steps: selecting fresh cabbage leaves cultivated in a greenhouse, making the cabbage leaves into round with the diameter of 3 cm by using a puncher, putting the circular blade into prepared liquid medicine to be soaked for 10 s according to the sequence from low dose to high dose of experimental design, naturally drying the cabbage leaves in the shade, putting the soaked cabbage leaves into a culture dish with filter paper and the diameter of 9 cm, inoculating regular healthy test insects, n=10, repeating the treatment for 3 times, and additionally setting blank control.

Series [6] deals with Resistant Plutella xylostella. In words: Resistant Plutella xylostella Controlling Activity Test. The note with it: for Mortality (%): 0.2 ppm, 2nd instar, resistant, radish leaves dipped 10 s, 72 h (three days); for mortality at 0.2 ppm / mortality at 1 ppm / mortality at 5 ppm: Plutella xylostella, in Raphanus sativus, 72 h. On the procedure: Resistant Plutella xylostella Controlling Activity Test:
Leaf dipping method was used, the appropriate amount of radish leaves were dipped into the drug for 10 s, placed in a plastic petri dish padded with filter paper and dried naturally, each dish was connected with 10 heads of 2nd instar small cabbage moths, placed in the observation room at 24° C. and light (16/8 h). 72 h later observation was made, and the body of the insect was touched lightly with a brush and no reaction was regarded as a dead insect, which was repeated for three times, and a blank control was also set up without any additional agent.

[7] abbreviates: read-out: mortality against Plutella xylostella.

The term mortality denotes the share of the test organisms that died. With `Cc1cc(C2=NOC(c3cc(Cl)c(F)c(Cl)c3)(C(F)(F)F)C2)ccc1C(=O)NC1CCS(=O)(=O)C1.I` (stereo not drawn) [Compound I-1, 4-(5-(3,5-dichloro-4-fluorophenyl)-5-(trifluoromethyl)-4,5-dihydroisoxazol-3-yl)-N-(1,1-dioxotetrahydrothiophen-3-yl)-2-methylbenzamide], in series [1], the mortality at 1.6 ppm was greater than 90%, the mortality at 1.56 ppm came to 94.3%, the mortality at 3.125 ppm is 100% and the mortality at 6.25 ppm came to 100%. For the same compound, the mortality at 12.5 ppm in series [1] came out at 100%. Moreover, the mortality at 1 ppm in series [2] was greater than 90%. The mortality at 50 ppm in series [3] is greater than 90%. In series [4], the mortality at 3.25 ppm was greater than 90%, the mortality at 1.56 ppm was found to be 100%, the mortality at 3.125 ppm worked out at 100% and the mortality at 6.25 ppm amounted to 100%. In series [5] (in Brassica oleracea, 72 h), this compound had a mortality at 0.333 ppm of 80% and a mortality at 1 ppm of 100%. Also, the mortality at 1 ppm in series [5] (setting [7]) is greater than 90%. In addition, in series [6], the “Mortality (%)” value is on record as 100%, the mortality at 0.2 ppm was determined as 100%, the mortality at 1 ppm stood at 100% and the mortality at 5 ppm came to 100%.
On to `Cc1cc(C2=NOC(c3cc(Cl)c(F)c(Cl)c3)(C(F)(F)F)C2)ccc1C(=O)N[C@@H]1CCS(=O)(=O)C1` (stereo partly drawn) [Compound I-14, 4-(5-(3,5-dichloro-4-fluorophenyl)-5-(trifluoromethyl)-4,5-dihydroisoxazol-3-yl)-N—((R)-1,1-dioxotetrahydrothiophen-3-yl)-2-methylbenzamide], for which, in series [1], the mortality at 1.6 ppm is greater than 90%, the mortality at 1.56 ppm is 100%, the mortality at 3.125 ppm was determined as 100% and the mortality at 6.25 ppm came out at 100%. The same compound showed a mortality at 12.5 ppm in series [1] of 100%. Besides, the mortality at 1 ppm in series [2] was greater than 90%. Further, the mortality at 50 ppm in series [3] was greater than 90%. Moreover, the mortality at 3.25 ppm in series [4] is greater than 90%. For the same compound, the mortality at 1 ppm in series [5] (setting [7]) was greater than 90%.
Consider `Cc1cc(C2=NOC(c3cc(C(F)(F)F)cc(C(F)(F)F)c3)(C(F)(F)F)C2)ccc1C(=O)NC1CCS(=O)(=O)C1` (stereo not drawn) [Compound I-25, 4-(5-(3,5-bis(trifluoromethyl)phenyl)-5-(trifluoromethyl ester)-4,5-dihydroisoxazol-3-yl)-N-(1,1-dioxotetrahydrothiophen-3-yl)-2-methylbenzamide], for which, in series [1], the mortality at 1.6 ppm was greater than 90%, the mortality at 1.56 ppm was found to be 90.3%, the mortality at 3.125 ppm came out at 99.3% and the mortality at 6.25 ppm was 100%. In addition, in series [1], the mortality at 12.5 ppm was determined as 100%. Also, the mortality at 1 ppm in series [2] was greater than 90%. The mortality at 50 ppm in series [3] was greater than 90%. In addition, in series [4], the mortality at 3.25 ppm is greater than 90%, the mortality at 1.56 ppm worked out at 100%, the mortality at 3.125 ppm turned out to be 100% and the mortality at 6.25 ppm amounted to 100%. In series [5] (in Brassica oleracea, 72 h), the mortality at 0.333 ppm is 65% and the mortality at 1 ppm was found to be 100%. Also, the mortality at 1 ppm in series [5] (setting [7]) was greater than 90%. In series [6], the “Mortality (%)” value came out at 100%, the mortality at 0.2 ppm was 100%, the mortality at 1 ppm came to 100% and the mortality at 5 ppm is 100%.
